Marks after values point to notes of the source that are not given here.
How the values were obtained:
[1] = system: rats; experiment: Barnes circular platform test; format: in vivo, rat
Method: All rats were anesthetized using 40 mg/kg of pentobarbital (Somnotol; MTC Pharmaceuticals, Cambridge, Ontario) intraperitoneally. Body temperature was maintained at 37° C. Aβ(25-35) (50 nmol in 10 μL of saline) was injected bilaterally into the lateral ventricles. Aβ(25-35) was prepared according to established methods (Sigurdsson, et al. (1997) supra). […] (1997) supra). […] After wound suture, all rats received […] of buprenorphine intramuscularly and were allowed to recover from surgery for 7 days. Learning and memory deficits were assessed using the Barnes circular platform. There are twenty holes evenly located along the border of circular platform with a hidden escape box beneath one of the holes. The circular platform is equipped with colored cues on the surrounding wall. A bright light combined with wind from a fan hung on the ceiling above the platform provides the incentive for the rats to find the hidden box and enter the escape hole. During each trial, the rats were initially placed in the center of the platform under an inverted box, then the box was lifted up and the rat is allowed to find the hole for up to 4 minutes. The latency (time to enter the escape hole) was recorded during the trial. There was a training period (trials 1-14) performed at day −7 to day −1 before surgery (day 0). PDTC or vehicle treatment was given 30 minutes before Aβ(25-35) injections and from days 1 to 7 post-surgery. Spatial memory was then tested on day 8 (trial 15) with the escape hole placed in the same location. Spatial learning was examined by re-testing (re-acquisition) from days 9 to 15 (trials 16-29) with the escape box relocated at […] from the original location. Digital photographs were taken using a light microscope (Leitz Diaplan). […] Also, relative optical density measurements and numbers of stained cells or accumulations were measured in entire brain areas for quantitative analysis and statistically analyzed with ANOVA and Tukey post hoc test with a significance level of P<0.05. […] The staircase data are expressed as the mean±SEM. […] Data are expressed as mean±SEM. […]

[2] = system: Male Wistar rats; experiment: Quantitative immunohistochemistry: relative optical density and numbers of stained cells or accumulations; format: in vivo, rat; details: Trifusal treatment (brackets)
Method: (§1) Male Wistar rats (250 to 300 grams; Charles River, Montreal, Quebec) were divided into 4 groups: intracerebroventricular injections of Aβ(25-35) (BACHEM, Torrance, Calif.); endothelin injections into the right striatum; both Aβ(25-35) and striatal endothelin injections; and sham procedures. The Aβ(25-35) fragment was used to reduce the possibility of rapid coagulation and to allow diffusion of the peptide into the brain.
(§2) All rats were anesthetized using 40 mg/kg of pentobarbital (Somnotol; MTC Pharmaceuticals, Cambridge, Ontario) intraperitoneally. Body temperature was maintained at 37° C. Aβ(25-35) (50 nmol in 10 μL of saline) was injected bilaterally into the lateral ventricles. Aβ(25-35) was prepared according to established methods (Sigurdsson, et al. (1997) supra). Aβ(25-35) (50 nmol in 10 μL of saline at a rate of 1 μL/minute) was injected bilaterally into the lateral ventricles via a stainless-steel cannula (23-gauge; anterior/posterior −0.8, medial/lateral ±1.4, and dorsal/ventral −4.0 below dura). Two endothelin injections (6 pmol in 3 μL of saline), 1 mm apart, were made into the right striatum (Sigurdsson, et al. (1997) supra). Sham procedures involved all the surgical steps without injections of Aβ(25-35) or endothelin. After wound suture, all rats received 40 mg/kg of buprenorphine intramuscularly and were allowed to recover from surgery for 7 days.
(§3) Twenty-one days after surgery, all animals were euthanized via pentobarbital overdose and perfused transaortically first with saline followed by 4% formaldehyde (pH 7.4). The brains were removed and cryoprotected in 30% sucrose for 36 hours at 4° C. Coronal sections (30 pm) were cut using a cryostat.
(§4) Free-floating sections from rat brains (n=5 for each group) were treated with 0.03% hydrogen peroxide and blocked with 3 mL of horse or rabbit serum (VECTASTAIN® Elite, Vector Laboratories, Burlingame, Calif.). The following primary antibodies were diluted in filtered phosphate-buffered saline: APPa4 mouse monoclonal (Chemicon International Inc, Temecula, Calif.; 1:1000), GFAP mouse monoclonal (Sigma-Aldrich, St Louis, Mo.; 1:1000), OX-6 mouse monoclonal (Serotec, Inc., Raleigh, N.C.; 1:1000), Tau-2 mouse monoclonal (Sigma-Aldrich, St Louis, Mo.; 1:10000), NFκB(p65) goat polyclonal (Santa Cruz Biotechnologies, Santa Cruz, Calif.; 1:1000), IL-1β goat polyclonal (Santa Cruz Biotechnologies, Santa Cruz, Calif.; 1:1000), and TNF-α-M18 goat polyclonal (Santa Cruz Biotechnologies, Santa Cruz, Calif.; 1:1000). APP-, Tau-2-, GFAP-, and OX-6-stained sections were incubated with 3 mL of horse biotinylated anti-mouse secondary antibody and horse serum. NFκB(p65), IL-1β, and TNF-α-stained sections were incubated with 3 mL of biotinylated rabbit anti-goat secondary antibody and rabbit serum. Sections were then incubated in 3 mL of avidin-biotin complex followed by 0.05% diaminobenzidine. Sections were washed, air-dried, cleared in xylene, and cover-slipped. Brains to be compared were processed at the same time using the same solutions to reduce variability in immunostaining caused by separate processing.
(§5) Digital photographs were taken using a light microscope (Leitz Diaplan). An investigator was blinded to the identification of the rat sections while analysis was being performed. All immunohistochemical data that were compared was processed at the same time to reduce any variation caused by differences of intensity. A grading scale was based on both observable size and intensity of staining (n=5 for each group). Also, relative optical density measurements and numbers of stained cells or accumulations were measured in entire brain areas for quantitative analysis and statistically analyzed with ANOVA and Tukey post hoc test with a significance level of P<0.05.

[3] = system: Male Wistar rats; experiment: Immunohistochemistry of rat brain sections, grading scale of staining size and intensity; format: in vivo; design: key to Effect of Triflusal on NKκB(p65) immunostaining / Effect of Triflusal on COX-2 immunostaining / Effect of Triflusal on GFAP immunostaining / Effect of Triflusal on OX-6 immunostaining / Effect of Triflusal on APP immunostaining / Effect of Triflusal on Tau-2 immunostaining / Effect of Triflusal on TNFα immunostaining / Effect of Triflusal on Cas-3 immunostaining: −: no effect; ↓: moderate reduction; ↓↓: strong reduction
Method: as §1, §2, §3, §4, §5

[4] = Left Hippocampus, Endothelin rats
[5] = Right Hippocampus, Aβ/Endo rats
[6] = Right Hippocampus, Endothelin rats
[7] = Corpus Callosum, Aβ-Endothelin rats
[8] = Hippocampus, Aβ-Endothelin rats
[9] = Hypothalamus, Aβ-Endothelin rats
[10] = Striatum (right), Aβ-Endothelin rats
[11] = Striatum (right), Endothelin rats
[12] = Thalamus (right), Aβ-Endothelin rats
[13] = Thalamus (right), Endothelin rats

## S=C(S)N1CCCC1 [PDTC, pyrrolidine dithiocarbamate]
[1]; 100 mg/kg 30 minutes before Aβ(25-35) injections and 7 days post-surgery, trial 15 (day 8) vs trial 14 (day −1)
  Effect on Aβ(25-35) induced increases in latency: prevented the Aβ(25-35) induced increases in latency
[1]; Aβ(25-35) group treated with PDTC, P<0.05, not significantly different from sham groups
  test response (latency) vs Aβ(25-35) group with vehicle treatment: significantly less

## CC(=O)Oc1cc(C(F)(F)F)ccc1C(=O)O [Triflusal]
[2]; Left Cortex, Aβ rats
  APP Accumulation: (12.5 ± 2.6)^x
[2]; Left Cortex, Aβ/Endo rats
  APP Accumulation: 64.5 ± 10.2)
[2]; Left Cortex, Endothelin rats
  APP Accumulation: (7.3 ± 1.3)
[2]; Left Cortex, Sham rats
  APP Accumulation: (7.3 ± 2.3)
[2]; Left Hippocampus, Aβ rats
  GFAP Intensity: (166.8 ± 9.1)
  OX6 Intensity: (109.8 ± 6.8)^a
[2]; Left Hippocampus, Aβ/Endo rats
  GFAP Intensity: (188.9 ± 4.4)
  OX6 Intensity: (149.0 ± 7.1)
[2]; [4]
  GFAP Intensity: (148.8 ± 4.5)
  OX6 Intensity: (106.8 ± 6.4)
[2]; Left Hippocampus, Sham rats
  GFAP Intensity: (150.8 ± 5.5)
  OX6 Intensity: (97.9 ± 2.0)
[2]; Right Cortex, Aβ rats
  APP Accumulation: (11.0 ± 2.1)^x
[2]; Right Cortex, Aβ/Endo rats
  APP Accumulation: (85.8 ± 16.1)
[2]; Right Cortex, Endothelin rats
  APP Accumulation: (13.3 ± 2.1)
[2]; Right Cortex, Sham rats
  APP Accumulation: (5.0 ± 2.7)
[2]; Right Hippocampus, Aβ rats
  GFAP Intensity: (164.2 ± 10.1)
  OX6 Intensity: (110.8 ± 4.6)^x
[2]; [5]
  GFAP Intensity: (188.3 ± 8.2)
  OX6 Intensity: (149.4 ± 7.4)^x
[2]; [6]
  GFAP Intensity: (150.1 ± 3.6)^x
  OX6 Intensity: (97.3 ± 4.5)^x
[2]; Right Hippocampus, Sham rats
  GFAP Intensity: (152.5 ± 7.9)
  OX6 Intensity: (93.4 ± 1.4)
[3]; Corpus Callosum, Aβ rats
  Effect of Triflusal on APP immunostaining: ↓↓
  Effect of Triflusal on COX-2 immunostaining: ↓↓
  Effect of Triflusal on GFAP immunostaining: ↓↓
  Effect of Triflusal on NKκB(p65) immunostaining: ↓↓
  Effect of Triflusal on OX-6 immunostaining: ↓↓
  Effect of Triflusal on TNFα immunostaining: ↓↓
  Effect of Triflusal on Tau-2 immunostaining: ↓↓
[3]; [7]
  Effect of Triflusal on APP immunostaining: −
  Effect of Triflusal on COX-2 immunostaining: ↓
  Effect of Triflusal on GFAP immunostaining: −
  Effect of Triflusal on NKκB(p65) immunostaining: ↓
  Effect of Triflusal on OX-6 immunostaining: ↓
  Effect of Triflusal on TNFα immunostaining: −
  Effect of Triflusal on Tau-2 immunostaining: −
[3]; Corpus Callosum, Endothelin rats
  Effect of Triflusal on GFAP immunostaining: −
[3]; Cortex, Aβ rats
  Effect of Triflusal on APP immunostaining: ↓↓
  Effect of Triflusal on COX-2 immunostaining: ↓↓
  Effect of Triflusal on GFAP immunostaining: −
  Effect of Triflusal on NKκB(p65) immunostaining: ↓
  Effect of Triflusal on OX-6 immunostaining: ↓
  Effect of Triflusal on TNFα immunostaining: ↓
  Effect of Triflusal on Tau-2 immunostaining: ↓↓
[3]; Cortex, Aβ-Endothelin rats
  Effect of Triflusal on APP immunostaining: −
  Effect of Triflusal on COX-2 immunostaining: ↓
  Effect of Triflusal on GFAP immunostaining: −
  Effect of Triflusal on NKκB(p65) immunostaining: −
  Effect of Triflusal on OX-6 immunostaining: −
  Effect of Triflusal on TNFα immunostaining: ↓
  Effect of Triflusal on Tau-2 immunostaining: −
[3]; Cortex, Endothelin rats
  Effect of Triflusal on GFAP immunostaining: −
[3]; Hippocampus, Aβ rats
  Effect of Triflusal on APP immunostaining: ↓
  Effect of Triflusal on COX-2 immunostaining: ↓
  Effect of Triflusal on GFAP immunostaining: −
  Effect of Triflusal on NKκB(p65) immunostaining: ↓
  Effect of Triflusal on OX-6 immunostaining: ↓
  Effect of Triflusal on Tau-2 immunostaining: ↓
[3]; [8]
  Effect of Triflusal on APP immunostaining: −
  Effect of Triflusal on COX-2 immunostaining: −
  Effect of Triflusal on GFAP immunostaining: −
  Effect of Triflusal on NKκB(p65) immunostaining: −
  Effect of Triflusal on OX-6 immunostaining: −
  Effect of Triflusal on Tau-2 immunostaining: −
[3]; Hippocampus, Endothelin rats
  Effect of Triflusal on GFAP immunostaining: −
[3]; Hypothalamus, Aβ rats
  Effect of Triflusal on APP immunostaining: ↓
  Effect of Triflusal on NKκB(p65) immunostaining: ↓↓
  Effect of Triflusal on TNFα immunostaining: ↓↓
[3]; [9]
  Effect of Triflusal on APP immunostaining: −
  Effect of Triflusal on NKκB(p65) immunostaining: ↓
  Effect of Triflusal on TNFα immunostaining: ↓
[3]; Striatum (right), Aβ rats
  Effect of Triflusal on GFAP immunostaining: −
[3]; [10]
  Effect of Triflusal on APP immunostaining: ↓
  Effect of Triflusal on COX-2 immunostaining: ↓
  Effect of Triflusal on GFAP immunostaining: −
  Effect of Triflusal on NKκB(p65) immunostaining: ↓
  Effect of Triflusal on OX-6 immunostaining: ↓
  Effect of Triflusal on TNFα immunostaining: ↓
[3]; [11]
  Effect of Triflusal on APP immunostaining: ↓↓
  Effect of Triflusal on COX-2 immunostaining: ↓↓
  Effect of Triflusal on Cas-3 immunostaining: ↓
  Effect of Triflusal on GFAP immunostaining: −
  Effect of Triflusal on NKκB(p65) immunostaining: ↓
  Effect of Triflusal on OX-6 immunostaining: ↓↓
  Effect of Triflusal on TNFα immunostaining: ↓
[3]; Thalamus (right), Aβ rats
  Effect of Triflusal on OX-6 immunostaining: −
  Effect of Triflusal on TNFα immunostaining: −
[3]; [12]
  Effect of Triflusal on OX-6 immunostaining: −
  Effect of Triflusal on TNFα immunostaining: −
[3]; [13]
  Effect of Triflusal on OX-6 immunostaining: −
  Effect of Triflusal on TNFα immunostaining: −

From patent US20060282906A1, “Non-transgenic rodent model of Alzheimer's disease” (priority 2005, published 2006)
